{
  "source": "patent US5660976A",
  "about": "“Method for preserving a liver by perfusion with or storage in a solution containing ascorbyl tocopheryl phosphodiester” (Senju Pharmaceutical Co., Ltd., priority 1994, dated 1997)",
  "experiment": "Acute toxicity (LD50) in rats",
  "conditions": "rat, in vivo",
  "experimental": "The compound for use as the active ingredient in the hepatic graft preservative composition and hepatic graft preserving method of this invention is a very safe substance with an extremely low toxic potential and, as such, can be used with advantage for the purposes of this invention. [e.g. the LD50 values of L-ascorbyl DL-α-tocopheryl phosphate potassium (hereinafter referred to briefly as EPC-K)≥5 g/kg p.o. (rats) and≥100 mg/kg i.v. (rats)].",
  "data": [
    {"smiles": "Cc1c(C)c2c(c(C)c1OP(=O)(O)OC1=C(O)[C@@H]([C@@H](O)CO)OC1=O)CCC(C)(CCCC(C)CCCC(C)CCCC(C)C)O2", "note": "(mixture of isomers) [EPC-K, L-Ascorbyl DL-α-tocopheryl phosphate potassium]", "values": [
      {"measurement": "LD50", "setting": "iv, i.v. (rats)", "result": "≥ 100", "unit": "mg/kg"},
      {"measurement": "LD50", "setting": "po, p.o. (rats)", "result": "≥ 5000", "unit": "mg/kg"}
    ]}
  ]
}
